{"source": "paper PMC10703426", "about": "“New characterization of dihydroergotamine receptor pharmacology in the context of migraine: utilization of a β-arrestin recruitment assay” (Frontiers in Neurology, 2023)", "origin": "cited, not measured here", "tested_on": "5-HT1D", "parameters": "method as in doi:10.1186/1129-2377-14-S1-P75", "conditions": "cited from earlier work", "data": [{"smiles": "CNS(=O)(=O)Cc1ccc2[nH]cc(CCN(C)C)c2c1", "note": "[sumatriptan succinate]", "values": [{"measurement": "dissociation half-life", "value": 5.4, "unit": "min"}]}]}
